{"source": "paper PMC12702354", "about": "“Engineered an ultrasmall curcumin oral nanoformulation restores intestinal integrity and gut microbiota dysbiosis” (Materials Today Bio, 2025)", "key": {"[1]": {"assay": "PK study after oral gavage", "format": "in vivo, C57BL/6J mice", "conditions": "50 mg/kg"}, "[2]": {"tested_on": "faecal metabolites of gut bacteria", "assay": "Faecal metabolome analysis (GC-MS) in VAN-induced mice", "format": "in vivo, C57BL/6 mice", "conditions": "faeces, VAN vs treated group, n = 5", "experimental": "The extract of faecal samples (40 mg/ml methanol) was prepared as described in the previous method. The obtained dry extract was derivatized with methoxyamine-HCl and BSTFA (Sigma-Aldrich, USA), followed by incubation for 1 h at 37 °C. Subsequently, the supernatant (10 μl) obtained after centrifugation at 10,000×g for 12 min was injected into an Agilent GC-MS. The injector, transfer line, and ion source were set at 280 °C, 150 °C and 230 °C, respectively. At the beginning, we set the oven temperature to 60 °C, and then increased at 60 °C/min for 2 min, followed by an increase at the rate of 10 °C/min until reaching 300 °C."}, "[3]": {"tested_on": "gut microbiota", "assay": "16S rRNA gene sequencing of gut microbiota in VAN-induced mice", "format": "in vivo, C57BL/6 mice", "conditions": "heat map-cluster and qPCR analysis", "description": "Faecal microbial genomic DNA was isolated and quantified as described elsewhere. Universal primers were employed to facilitate the amplification of the V3 and V4 domains of the 16S rRNA gene. The obtained amplicons were normalized, aligned to create the sequencing library, and sequenced on an Illumina MiSeq (San Diego, USA). The raw data of 16S rRNA gene sequences were filtered based on high error probability (>0.01) and analyzed by QIIME version (1.9.1). We generated OTUs at an identity threshold of 97 % using UPARSE (version 7.0.1001). NMDS plots were developed using PAST version 2.17 [44]. Heatmap profiles were constructed using R Studio software version 3.6.1. To examine the differentially abundant biomarkers between the different groups, LEfSe analysis was performed. Spearman correlational studies were performed to assess the correlations between VAN-induced inflammation-related parameters and gut bacteria and metabolites."}, "[4]": {"tested_on": "Caco-2 cell monolayer", "assay": "TEER of Caco-2 cell monolayer", "format": "cell-based, human", "conditions": "applied apically 120 min, then removed", "experimental": "First, 5 × 10^4 Caco-2 cells/well, as a gastrointestinal epithelium model were cultured in transwell plates (Thermo Fisher, India) with a pore size of 0.4 μm. Once the TEER values attained 500 Ω cm^2, the cell monolayers were utilized for the subsequent experiments. Initially, mucin (10 mg/mL PBS) was introduced into the apical medium to mimic the occurrence of mucus, whereas PBS without mucin was utilized to represent the condition lacking mucus. Subsequently, IF (20 μL, 100 IU/mL) and 200 μL of CUR formulations (1 mg/mL) were introduced into the upper chambers. While incubating in a water bath at 37 °C, samples were taken from the lower chambers for analysis at various time intervals. A portion of the basolateral medium was taken out and examined using RP-HPLC to quantify the CUR content. The Papp of CUR was determined using the method outlined in a previous study. To analyze intracellular uptake, cells were gathered and underwent multiple freeze-thaw cycles prior to being lysed for 60 min. The concentration of CUR taken up by the cells was assessed using HPLC. Additionally, TEER measurements were recorded to evaluate the effect of CUR formulations on the monolayer's integrity. The baseline TEER readings for the Caco-2 cell layer were recorded. The apical media were then substituted with CUR formulations (200 μL). […] The Papp values for CUR were calculated."}, "[5]": {"conditions": "male, C57BL/6J, mouse, CUR in plasma, n = 6"}, "[6]": {"conditions": "male, C57BL/6J, mouse, plasma, n = 6"}}, "note": "Where two headings read alike, the source gives them in different places."}
{"smiles": "COc1cc(/C=C/C(=O)CC(=O)/C=C/c2ccc(O)c(OC)c2)ccc1O", "note": "[free-CUR, curcumin]", "values": [{"measurement": "Cmax", "setting": "[1]; CUR in plasma, n = 6", "value": "7.126 ± 0.317", "unit": "ng/mL"}, {"measurement": "AUC(0-inf)", "setting": "[1]; [5]", "value": "10.4 ± 0.683", "unit": "ng·h/mL"}, {"measurement": "AUC(0-t)", "setting": "[1]; [5]", "value": "7.68 ± 0.218", "unit": "ng·h/mL"}, {"measurement": "Tmax", "setting": "[1]; [6]", "value": 30, "unit": "min"}, {"measurement": "half-life", "setting": "[1]; [6]", "value": "64.6 ± 8.22", "unit": "min"}, {"measurement": "k el", "setting": "[1]; male, C57BL/6J, mouse, plasma, n = 6, read-out: Ke (converted)", "value": "5.25e-05", "unit": "s⁻¹"}, {"measurement": "Cmax", "setting": "[1]; male, C57BL/6J, mouse, plasma, po, CUR in plasma, n = 6, read-out: Cmax", "value": "~7.13", "unit": "ng/mL"}, {"measurement": "Bioavailability", "setting": "[1]; relative to free-CUR, n = 6", "value": "100.00 ± 29.388", "unit": "%"}, {"measurement": "Fold change, 2,4,5-Trihydroxypentanoic acid", "setting": "[2]", "value": 0.778}, {"measurement": "Fold change, 2-Hydroxyglutaric acid", "setting": "[2]", "value": 3.491}, {"measurement": "Fold change, 4-Aminobutyric acid", "setting": "[2]", "value": 0.998}, {"measurement": "Fold change, 4-Hydroxy-3-methoxybenzoic acid", "setting": "[2]", "value": 0.619}, {"measurement": "Fold change, 4-Hydroxyproline", "setting": "[2]", "value": 0.924}, {"measurement": "Fold change, 5-Aminovaleric acid", "setting": "[2]", "value": 1.101}, {"measurement": "Fold change, 9,12,15-Octadecatrienoic acid", "setting": "[2]", "value": 1.217}, {"measurement": "Fold change, 9-(Z)-Hexadecenoic acid", "setting": "[2]", "value": 1.102}, {"measurement": "Fold change, Acetate", "setting": "[2]", "value": 0.733}, {"measurement": "Fold change, Adenine", "setting": "[2]", "value": 0.325}, {"measurement": "Fold change, Alanine", "setting": "[2]", "value": 0.743}, {"measurement": "Fold change, Arabitol", "setting": "[2]", "value": 0.432}, {"measurement": "Fold change, Aspartic acid", "setting": "[2]", "value": 3.075}, {"measurement": "Fold change, Azelaic acid", "setting": "[2]", "value": 0.849}, {"measurement": "Fold change, Benzenepropanoic acid", "setting": "[2]", "value": 0.368}, {"measurement": "Fold change, Butyrate", "setting": "[2]", "value": 0.168}, {"measurement": "Fold change, Cholesta-8,24-dien-3-ol, 4-methyl-, (3β,4α)", "setting": "[2]", "value": 1.313}, {"measurement": "Fold change, D-fructose", "setting": "[2]", "value": 1.400}, {"measurement": "Fold change, D-glucose", "setting": "[2]", "value": 1.069}, {"measurement": "Fold change, Eicosanoic acid", "setting": "[2]", "value": 0.404}, {"measurement": "Fold change, Erythronic acid", "setting": "[2]", "value": 1.754}, {"measurement": "Fold change, Ethanolamine", "setting": "[2]", "value": 1.266}, {"measurement": "Fold change, Fucose", "setting": "[2]", "value": 0.580}, {"measurement": "Fold change, Galacturonic acid", "setting": "[2]", "value": 1.024}, {"measurement": "Fold change, Gentiobiose", "setting": "[2]", "value": 2.357}, {"measurement": "Fold change, Gluconic acid", "setting": "[2]", "value": 1.119}, {"measurement": "Fold change, Glutaric acid", "setting": "[2]", "value": 0.708}, {"measurement": "Fold change, Glycerol", "setting": "[2]", "value": 0.926}, {"measurement": "Fold change, Glycerol-3-phosphate", "setting": "[2]", "value": 2.032}, {"measurement": "Fold change, Glycolic acid", "setting": "[2]", "value": 2.144}, {"measurement": "Fold change, Hexadecanoic acid", "setting": "[2]", "value": 1.155}, {"measurement": "Fold change, Hexanoic acid", "setting": "[2]", "value": 1.359}, {"measurement": "Fold change, Homoserine", "setting": "[2]", "value": 2.352}, {"measurement": "Fold change, Hypoxanthine", "setting": "[2]", "value": 0.916}, {"measurement": "Fold change, Isoleucine", "setting": "[2]", "value": 1.058}, {"measurement": "Fold change, L-rhamnose", "setting": "[2]", "value": 0.191}, {"measurement": "Fold change, Lactic acid", "setting": "[2]", "value": 0.573}, {"measurement": "Fold change, Leucine", "setting": "[2]", "value": 0.704}, {"measurement": "Fold change, Lysine", "setting": "[2]", "value": 0.526}, {"measurement": "Fold change, Methionine", "setting": "[2]", "value": 1.121}, {"measurement": "Fold change, Nicotinic acid", "setting": "[2]", "value": 0.616}, {"measurement": "Fold change, Octadecadienoic acid", "setting": "[2]", "value": 1.285}, {"measurement": "Fold change, Ornithine", "setting": "[2]", "value": 0.453}, {"measurement": "Fold change, Orotic acid", "setting": "[2]", "value": 1.443}, {"measurement": "Fold change, Pantothenic acid", "setting": "[2]", "value": 0.519}, {"measurement": "Fold change, Pentadecanoic acid", "setting": "[2]", "value": 0.271}, {"measurement": "Fold change, Phenylalanine", "setting": "[2]", "value": 0.989}, {"measurement": "Fold change, Phosphoric acid", "setting": "[2]", "value": 1.212}, {"measurement": "Fold change, Propionate", "setting": "[2]", "value": 1.530}, {"measurement": "Fold change, Ribitol", "setting": "[2]", "value": 1.340}, {"measurement": "Fold change, Serine", "setting": "[2]", "value": 0.538}, {"measurement": "Fold change, Sorbitol", "setting": "[2]", "value": 1.816}, {"measurement": "Fold change, Tetradecanoic acid", "setting": "[2]", "value": 0.349}, {"measurement": "Fold change, Threitol", "setting": "[2]", "value": 2.116}, {"measurement": "Fold change, Threonic acid", "setting": "[2]", "value": 1.362}, {"measurement": "Fold change, Threonine", "setting": "[2]", "value": 1.275}, {"measurement": "Fold change, Thymine", "setting": "[2]", "value": 1.214}, {"measurement": "Fold change, Tricosadiynoic acid", "setting": "[2]", "value": 0.767}, {"measurement": "Fold change, Tryptophan", "setting": "[2]", "value": 1.117}, {"measurement": "Fold change, Uracil", "setting": "[2]", "value": 0.561}, {"measurement": "Fold change, Uric acid", "setting": "[2]", "value": 0.772}, {"measurement": "Fold change, beta-Alanine", "setting": "[2]", "value": 1.217}, {"measurement": "Fold change, myo-Inositol", "setting": "[2]", "value": 2.179}, {"measurement": "Fold change, myo-Inositol-1-phosphate", "setting": "[2]", "value": 0.584}, {"measurement": "Restoring effect on VAN-altered GM", "setting": "[3]", "value": "did not show any significant restoring effects"}, {"measurement": "TEER change of cell monolayer", "setting": "[4]", "value": "kept the TEER steady"}]}
